# Measured values taken from DBAASP.
# Values joined by “and” are separate entries in the source; they are usually repeats but may differ in a detail not shown here. Equal entries are not always repeated.
# Key:
# Test in all cases: ≥ marks a high value that may be exact or a test limit, other limits are often not marked, values filed in µg/mL are converted to µM
# [1] = system: Candida albicans NCYC 1467
# [2] = system: Enterococcus faecalis NCTC 12697
# [3] = system: Escherichia coli NCTC 10418
# [4] = system: Klebsiella pneumoniae ATCC 43816
# [5] = system: Pseudomonas aeruginosa ATCC 27853
# [6] = system: Staphylococcus aureus ATCC 12493
# [7] = system: Staphylococcus aureus NCTC 10788
# Staphylococcus aureus = system: Staphylococcus aureus
# [8] = system: Acinetobacter baumannii ATCC 19606
# Acinetobacter junii RT-4 = system: Acinetobacter junii RT-4
# Bacillus megaterium Bm11 = system: Bacillus megaterium Bm11
# [9] = system: Candida albicans ATCC 10231
# [10] = system: Enterococcus faecalis ATCC 29212
# [11] = system: Escherichia coli ATCC 25922
# Escherichia coli D21 = system: Escherichia coli D21
# [12] = system: Pseudomonas aeruginosa ATCC 15692
# [13] = system: Pseudomonas syringae pv. tabaci 1918NCPPB
# Saccharomyces cerevisiae = system: Saccharomyces cerevisiae
# [14] = system: Schizosaccharomyces pombe
# [15] = system: Staphylococcus aureus ATCC 25923
# [16] = system: Staphylococcus aureus Cowan 1
# Staphylococcus capitis 1 = system: Staphylococcus capitis 1
# [17] = system: Staphylococcus epidermidis ATCC 12228
# [18] = system: Streptococcus pyogenes ATCC 21547
# [19] = system: Yersinia pseudotuberculosis YPIII
# [20] = system: Bacillus subtilis ATCC 9372
# [21] = system: Escherichia coli ATCC 8739
# [22] = system: Proteus vulgaris NCTC 4635
# [23] = system: Pseudomonas aeruginosa ATCC 9027
# [24] = system: Staphylococcus aureus ATCC 6538
# [25] = system: Corynebacterium xerosis C875
# Escherichia coli DC2 = system: Escherichia coli DC2
# Escherichia coli UB1005 = system: Escherichia coli UB1005
# [26] = system: Staphylococcus epidermidis C621
# [27] = system: Bacillus subtilis ATCC 6633
# [28] = system: Klebsiella pneumoniae ATCC 10031
# [29] = system: Micrococcus luteus ATCC 10240
# [30] = system: Salmonella enterica subsp. enterica serovar Typhimurium ATCC 14028
# [31] = system: Shigella dysenteriae ATCC 9752
# [32] = system: Staphylococcus aureus ATCC 6538P
# [33] = system: Staphylococcus aureus TK784
# [34] = system: Candida albicans ATCC 37092
# [35] = system: Candida tropicalis ATCC 37097
# [36] = system: Staphylococcus aureus ATCC 29213
structure (smiles),measurement,setting,value
CC[C@H](C)[C@H](NC(=O)[C@H](CO)NC(=O)[C@H](CCCCN)NC(=O)[C@H](Cc1c[nH]c2ccccc12)NC(=O)[C@H](CC(C)C)NC(=O)[C@H](C)N)C(=O)N[C@@H](CC(C)C)C(=O)N[C@@H](CCCCN)C(=O)N[C@@H](CC(N)=O)C(=O)N[C@H](C(=O)NCC(=O)N[C@@H](CCCCN)C(=O)N[C@@H](C)C(=O)N[C@@H](C)C(=O)NCC(=O)N[C@@H](CCCCN)C(=O)N[C@@H](C)C(=O)N[C@H](C(=O)N[C@@H](CC(C)C)C(N)=O)C(C)C)C(C)C [ALWKSILKNVGKAAGKAVL],MIC,[1],2 µM
same,MIC,[2],≥ 256 µM
same,MIC,[3],2 µM
same,MIC,[4],≥ 32 µM
same,MIC,[5],4 µM
same,MIC,[6],8 µM
same,MIC,[7],2 µM
same,MIC,Staphylococcus aureus,11.3 µM
CC[C@H](C)[C@H](NC(=O)[C@H](CCCN=C(N)N)NC(=O)[C@@H]1CCCN1C(=O)[C@H](CC(C)C)NC(=O)[C@H](Cc1ccccc1)NC(=O)[C@H](CCCCN)NC(=O)[C@H](CO)NC(=O)[C@H](Cc1ccccc1)NC(=O)[C@H](Cc1c[nH]c2ccccc12)NC(=O)[C@@H]1CCCN1C(=O)[C@@H](NC(=O)[C@@H](N)Cc1ccccc1)C(C)C)C(=O)N[C@@H](CC(C)C)C(N)=O [FVPWFSKFLPRIL],MIC,[8],48 µM
same,MIC,Acinetobacter junii RT-4,12 µM
same,MIC,Bacillus megaterium Bm11,3 µM
same,MIC,[9],12 µM
same,MIC,[10],48 µM
same,MIC,[11],48 µM
same,MIC,Escherichia coli D21,24 µM
same,MIC,[12],≥ 48 µM
same,MIC,[5],> 48 µM
same,MIC,[13],24 µM
same,MIC,Saccharomyces cerevisiae,12 µM
same,MIC,[14],12 µM
same,MIC,[15],24 µM
same,MIC,[16],24 µM
same,MIC,Staphylococcus capitis 1,12 µM
same,MIC,[17],12 µM
same,MIC,[18],12 µM
same,MIC,[19],24 µM
CC[C@H](C)[C@H](NC(=O)[C@@H](NC(=O)[C@H](CO)NC(=O)[C@H](C)NC(=O)[C@@H](NC(=O)[C@H](CCCCN)NC(=O)[C@H](CCCCN)NC(=O)[C@@H](NC(=O)[C@@H](NC(=O)[C@H](C)NC(=O)[C@H](Cc1ccccc1)NC(=O)[C@H](CC(C)C)NC(=O)CN)C(C)C)[C@@H](C)CC)C(C)C)C(C)C)C(=O)NCC(=O)NCC(=O)O [GLFAVIKKVASVIGG],MIC,[20],≥ 351 µM
same,MIC,[21],≥ 351 µM
same,MIC,[22],≥ 351 µM
same,MIC,[23],351 µM
same,MIC,[24],> 351 µM
CC[C@H](C)[C@H](NC(=O)[C@@H](NC(=O)[C@H](CC(=O)O)NC(=O)[C@H](Cc1ccccc1)NC(=O)[C@H](CC(C)C)NC(=O)CN)C(C)C)C(=O)N[C@@H](CCCCN)C(=O)N[C@@H](CCCCN)C(=O)N[C@H](C(=O)N[C@@H](C)C(=O)N[C@@H](CO)C(=O)O)C(C)C [GLFDVIKKVAS],MIC,[20],≥ 435 µM
same,MIC,[21],≥ 870 µM
same,MIC,[22],≥ 870 µM
same,MIC,[23],870 µM
same,MIC,[24],> 870 µM
C[C@H](NC(=O)[C@H](C)NC(=O)[C@H](C)NC(=O)[C@H](CCCCN)NC(=O)[C@H](C)NC(=O)[C@H](C)NC(=O)[C@H](C)NC(=O)[C@H](CCCCN)NC(=O)[C@@H](N)CCCCN)C(=O)N[C@@H](C)C(=O)N[C@@H](C)C(=O)N[C@@H](CCCCN)C(=O)N[C@@H](C)C(=O)N[C@@H](C)C(=O)N[C@@H](Cc1c[nH]c2ccccc12)C(=O)N[C@@H](C)C(=O)N[C@@H](C)C(=O)N[C@@H](CCCCN)C(=O)N[C@@H](C)C(=O)N[C@@H](C)C(=O)N[C@@H](C)C(=O)N[C@@H](CCCCN)C(=O)N[C@@H](CCCCN)C(=O)N[C@@H](CCCCN)C(=O)N[C@@H](CCCCN)C(N)=O [KKAAAKAAAAAKAAWAAKAAAKKKK],MIC,[25],16 µM
same,MIC,Escherichia coli DC2,≥ 64 µM
same,MIC,Escherichia coli UB1005,≥ 64 µM
same,MIC,[26],≥ 64 µM
CSCC[C@H](NC(=O)[C@H](C)NC(=O)[C@H](C)NC(=O)[C@H](C)NC(=O)[C@H](CCCCN)NC(=O)[C@@H](N)CCCCN)C(=O)N[C@@H](C)C(=O)N[C@@H](C)C(=O)N[C@@H](C)C(=O)N[C@@H](C)C(=O)N[C@@H](C)C(=O)N[C@@H](CCSC)C(=O)N[C@@H](C)C(=O)N[C@@H](C)C(=O)N[C@@H](Cc1c[nH]c2ccccc12)C(=O)N[C@@H](C)C(=O)N[C@@H](C)C(=O)N[C@@H](CCSC)C(=O)N[C@@H](C)C(=O)N[C@@H](C)C(=O)N[C@@H](C)C(=O)N[C@@H](CCCCN)C(=O)N[C@@H](CCCCN)C(=O)N[C@@H](CCCCN)C(=O)N[C@@H](CCCCN)C(N)=O [KKAAAMAAAAAMAAWAAMAAAKKKK],MIC,[25],0.5 µM
same,MIC,Escherichia coli DC2,≥ 32 µM
same,MIC,Escherichia coli UB1005,≥ 32 µM
same,MIC,[26],16 µM
CC(C)C[C@H](NC(=O)[C@H](CC(C)C)NC(=O)[C@H](Cc1c[nH]c2ccccc12)NC(=O)[C@H](CCCCN)NC(=O)[C@H](CC(C)C)NC(=O)[C@H](CC(C)C)NC(=O)[C@H](Cc1c[nH]c2ccccc12)NC(=O)[C@H](CCCCN)NC(=O)[C@@H](N)CC(C)C)C(N)=O [LKWLLKWLL],MIC,[27],1.07 µM
same,MIC,[11],4.12 µM
same,MIC,[28],4.12 µM
same,MIC,[29],2.06 µM
same,MIC,[5],8.25 µM
same,MIC,[30],8.25 µM
same,MIC,[31],2.06 µM
same,MIC,[32],1.07 µM
same,MIC,[33],2.06 µM
same,MIC,[17],1.07 µM
CC(C)C[C@H](NC(=O)[C@@H](N)CCCN=C(N)N)C(=O)N[C@@H](Cc1ccc(O)cc1)C(=O)N[C@@H](CCCN=C(N)N)C(N)=O [RLYR],MIC,[34],10 µM and 6.4 µM
same,MIC,[35],1.3 µM and 1.8 µM
same,MIC,[10],4.7 µM and 10.2 µM
same,MIC,[11],6.1 µM and 10.2 µM
same,MIC,[36],4.5 µM and 10.2 µM
